Measurements: patent US20230312605A1, “PYRROLO[2,1-F][1,2,4]TRIAZINES AND PREPARATION AND USES THEREOF” (BioSplice Therapeutics, Inc., priority 2021, published 2023)

How the values were obtained:
[1] = target: recombinant DYRK1A kinase (Homo sapiens (Human), UniProt Q13627); experiment: DYRK1A kinase assay (Ser/Thr 18 peptide Z-lyte FRET assay); format: biochemical; details: recombinant DYRK1A 0.25 µg/mL, ATP 15 µM, Ser/Thr peptide 18 4 µM, one hour at room temperature; table head prints EC50, method says IC50
Outline: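 Z-lyte FRET format: 1 h room-temperature reaction of 15 µM ATP, 4 µM Ser/Thr 18 peptide and 0.25 µg/mL recombinant human DYRK1A, in duplicate over 11 compound concentrations up to 10 µM. IC50 was derived by non-linear regression of percent phosphorylation calculated from coumarin/fluorescein emission ratios.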

[2] = system: Tau phosphorylation at Thr212 (pThr212) in HEK293T cells transfected with DYRK1A and MAPT; experiment: phosphoTau (Thr212) AlphaLISA tau phosphorylation cell assay; format: cell-based; details: HEK-293T, HEK293T cells transiently transfected with human DYRK1A and MAPT, compound treatment 18-24 hours, read-out: pTau (Thr212) EC50
Method: Representative compounds were screened using the assay procedure for tau phosphorylation activity described below.
HEK293T cells (ATCC, CRL3216) cultured in DMEM (Thermo Fisher Scientific, 10566024) supplemented with 10% FBS (Corning, 35-011-CV) and Penicillin/Streptomycin (Thermo Fisher Scientific, 15140163) were seeded in a 75 cm^2 flask at 8.1 × 10^6 cells/flask. The HEK293T cells were then transiently transfected with 5 µg DYRK1A (NM_001396) human untagged clone (OriGene, SC314641) and 2.5 µg MAPT (441 a.a. Tau gene) (NM_005910) human untagged clone (OriGene, TP313312) using Lipofectamine 3000 (Thermo Fisher Scientific, L30000015) and incubated for 20-30 hours in a humidified incubator at 37° C. and 5% CO^2. Post-incubation, HEK293T cells transfected with the DYRK1A and MAPT expression vectors were harvested and seeded in BioCoat poly-D lysine coated 96-well plates (Corning, 354461) at 3 × 10^4 cells/well.
The above synthesized compounds were screened using the cell assay procedure to assess decreased Tau phosphorylation at Thr212 (pThr212) described below.
Each compound was dissolved in DMSO (Sigma-Aldrich, D8418-100 mL) as a 10 mM stock. 10 mM stocks were serially diluted 1:3, 10-point dose-response curve and added to the cells with a final concentration ranging from 20 µM to 1.1 nM. Cells were treated with compounds in duplicate and incubated for 18-24 hours in a humidified incubator at 37° C. and 5% CO^2.
Following the overnight compound treatment, cells were lysed with 1X Alpha Surefire Ultra Lysis Buffer (Perkin Elmer, ALSU-LB-100ML) complemented with 1X Halt Phosphatase Inhibitor Cocktail (Thermo Fisher Scientific, 78427) and 1X Halt Protease Inhibitor Cocktail (Thermo Fisher Scientific, 78438). Lysates were spun down at 12,000 g for 10 min to remove any cellular debris and 5 µL of lysates were dispensed into a 384-well Opti-Plate (Perkin Elmer, 6007290) for the measurement of Tau phosphorylation in the phosphoTau (Thr212) AlphaLISA assay. Donor antibody, biotinylated HT7Tau (Thermo Fisher Scientific, MN1000B), and acceptor antibody, pThr212Tau (Thermo Fisher Scientific, 44740G) were both added to the cell lysates at a final concentration of 3 nM and incubated for 1 hour at room temperature. Following incubation of the lysates with the donor and acceptor antibodies, anti-rabbit IgG(Fc specific) AlphaLISA acceptor beads (Perkin Elmer, AL104C) were added at a 10 ug/mL final concentration and incubated for 1 hour at room temperature protected from light. Lastly, AlphaScreen streptavidin donor beads (PerkinElmer, 6760002) were added at 40 ug/mL final concentration and incubated for 1 hour at room temperature protected from light. Plates were read at Ex= […], and Em=615 nm on the EnVision Multilabel Plate Reader (Perkin Elmer)
phospho-Tau (Thr212) AlphaLISA signal was used to plot, draw the curve fitting, and determine each compound’s EC50 in Prism (GraphPad).

| Structure (SMILES) | EC50 [1] [nM] | EC50 [2] [nM] |
| --- | --- | --- |
| CC(C)(F)CNc1ncc2c(-c3ccc4nccn4c3)ccn2n1 [Compound 3, N-(2-Fluoro-2-methylpropyl)-5-(imidazo[1,2-a]pyridin-6-yl)pyrrolo[2,1-f] [1,2,4]triazin-2-amine] | 23 | 1840 |
| FC1(F)CC(Nc2ncc3c(-c4ccc5nccn5c4)ccn3n2)C1 [Compound 23, N-(3,3-Difluorocyclobutyl)-5-(imidazo[1,2-a]pyridin-6-yl)pyrrolo[2,1-f] [1,2,4]triazin-2-amine] | 28 | 794 |
| CO[C@H]1C[C@@H](Nc2ncc3c(-c4ccc5nccn5c4)ccn3n2)C1 [Compound 26, 5-(Imidazo[1,2-a]pyridin-6-yl)-N-(cis-3-methoxycyclobutyl)pyrrolo[2,1-f] [1,2,4]triazin-2-amine] | 11 | 238 |
| FC1(F)CCC(Nc2ncc3c(-c4ccc5nccn5c4)ccn3n2)CC1 [Compound 43, N-(4,4-Difluorocyclohexyl)-5-(imidazo[1,2-a]pyridin-6-yl)pyrrolo[2,1-f] [1,2,4]triazin-2-amine] | 19 | 504 |
| c1cn2cc(-c3ccn4nc(NC5COC5)ncc34)ccc2n1 [Compound 65, 5-(Imidazo[1,2-a]pyridin-6-yl)-N-(oxetan-3-yl)pyrrolo[2,1-f][1,2,4]triazin-2-amine] | 25 | 828 |
| CC(C)(F)CNc1ncc2c(-c3cnc4nccn4c3)ccn2n1 [Compound 216, N-(2-Fluoro-2-methylpropyl)-5-(imidazo[1,2-a]pyrimidin-6-yl)pyrrolo[2,1-f] [1,2,4]triazin-2-amine] | 12 | 455 |
| FC1(CNc2ncc3c(-c4cnc5nccn5c4)ccn3n2)COC1 [Compound 228, N-((3 -Fluorooxetan-3-yl)methyl)-5-(imidazo [1,2-a]pyrimidin-6-yl)pyrrolo [2,1-f][1,2,4]triazin-2-amine] | 13 | 292 |
| FC1(F)CCC(Nc2ncc3c(-c4cnc5nccn5c4)ccn3n2)CC1 [Compound 256, N-(4,4-Difluorocyclohexyl)-5-(imidazo[1,2-a]pyrimidin-6-yl)pyrrolo[2,1-f] [1,2,4]triazin-2-amine] | 5 | 220 |
| CO[C@H]1CC[C@@H](Nc2ncc3c(-c4cnc5nccn5c4)ccn3n2)CC1 [Compound 259, 5-(Imidazo[1,2-a]pyrimidin-6-yl)-N-(cis-4-methoxycyclohexyl)pyrrolo[2,1-f][1,2,4]triazin-2-amine] | 7 | 150 |
| FC1(F)CC2(CC(Nc3ncc4c(-c5cnc6nccn6c5)ccn4n3)C2)C1 [Compound 281, N-(6,6-Difluorospiro[3.3]heptan-2-yl)-5-(imidazo[1,2-a]pyrimidin-6-yl) pyrrolo[2,1-f] [1,2,4]triazin-2-amine] | 3 | 70 |
| c1cn2cc(-c3ccn4nc(NC5CC6(COC6)C5)ncc34)cnc2n1 [Compound 282, 5-(Imidazo[1,2-a]pyrimidin-6-yl)-N-(2-oxaspiro[3.3]heptan-6-yl)pyrrolo[2,1-f][1,2,4]triazin-2-amine] | 7 | 172 |
| Cc1nc2ncc(-c3ccn4nc(NCC(C)(C)F)ncc34)cc2n1C(C)C [Compound 571, N-(2-Fluoro-2-methylpropyl)-5-(1-isopropyl-2-methyl-1H-imidazo[4,5-b]pyridin-6-yl)pyrrolo[2,1-f] [1,2,4]triazin-2-amine] | 11 | 725 |
| Cc1nc2ncc(-c3ccn4nc(NCC(C)(C)F)ncc34)cc2n1C1CCOCC1 [Compound 784, N-(2-Fluoro-2-methylpropyl)-5-(2-methyl-1-(tetrahydro-2H-pyran-4-yl)-1H-imidazo[4,5-b]pyridin-6-yl)pyrrolo[2,1-f] [1,2,4]triazin-2-amine] | 11 | 516 |
| Cc1nc2ccc(-c3ccn4nc(NC5CCC(F)(F)CC5)ncc34)nc2n1CCF [Compound 1037, N-(4,4-Difluorocyclohexyl)-5-(3-(2-fluoroethyl)-2-methyl-3H-imidazo[4,5-b]pyridin-5-yl)pyrrolo[2,1-f][1,2,4]triazin-2-amine] | 20 | 403 |
| Cc1nc2ccc(-c3ccn4nc(NCC(C)(C)F)ncc34)nc2n1CC(F)F [Compound 1068, N-(2-Fluoro-2-methylpropyl)-5-(3-(2,2-difluoroethyl)-2-methyl-3H-imidazo[4,5-b]pyridin-5-yl)pyrrolo[2,1-f][1,2,4]triazin-2-amine] | 4 | 159 |
| Cc1nc2ccc(-c3ccn4nc(NC5CCC(F)(F)CC5)ncc34)nc2n1CC(F)F [Compound 1108, N-(4,4-Difluorocyclohexyl)-5-(3-(2,2-difluoroethyl)-2-methyl-3H-imidazo [4,5-b]pyridin-5-yl)pyrrolo[2,1-f][1,2,4]triazin-2-amine] | 8 | 126 |
| CO[C@H]1CC[C@@H](Nc2ncc3c(-c4ccc5nc(C)n(CC(F)F)c5n4)ccn3n2)CC1 [Compound 1111, 5-(3-(2,2-Difluoroethyl)-2-methyl-3H-imidazo[4,5-b]pyridin-5-yl)-N-(cis-4-methoxycyclohexyl)pyrrolo[2,1-f][1,2,4]triazin-2-amine] | 3 | 71 |
| COCCn1c(C)nc2ccc(-c3ccn4nc(NC5CCC(F)(F)CC5)ncc34)nc21 [Compound 1179, N-(4,4-Difluorocyclohexyl)-5-(3-(2-methoxyethyl)-2-methyl-3H-imidazo [4,5-b]pyridin-5-yl)pyrrolo[2,1-f][1,2,4]triazin-2-amine] | 26 | 470 |
| N[C@H]1CC[C@@H](Nc2ncc3c(-c4ccc5ncccc5c4)ccn3n2)CC1 [Compound 1332, cis-N^1-(5-(Quinolin-6-yl)pyrrolo[2,1-f][1,2,4]triazin-2-yl)cyclohexane-1,4-diamine] | 20 | 524 |
| O[C@H]1CC[C@@H](Nc2ncc3c(-c4ccc5nccnc5c4)ccn3n2)CC1 [Compound 1393, cis-4-((5-(Quinoxalin-6-yl)pyrrolo[2,1-f][1,2,4]triazin-2-yl)amino) cyclohexan-1-ol] | 23 | 718 |
| C[C@]1(O)CC[C@@H](Nc2ncc3c(-c4ccc5nccnc5c4)ccn3n2)CC1 [Compound 1394, (1s,4s)-1-Methyl-4-((5-(quinoxalin-6-yl)pyrrolo[2,1-f][1,2,4]triazin-2-yl)amino)cyclohexan-1-ol] | 14 | 709 |
| CO[C@H]1CC[C@@H](Nc2ncc3c(-c4ccc5nccnc5c4)ccn3n2)CC1 [Compound 1395, N-(cis-4-Methoxycyclohexyl)-5-(quinoxalin-6-yl)pyrrolo[2,1-f][1,2,4] triazin-2-amine] | 11 | 380 |
| c1cnc2cc(-c3ccn4nc(NC5CC6(COC6)C5)ncc34)ccc2n1 [Compound 1418, 5-(Quinoxalin-6-yl)-N-(2-oxaspiro[3.3]heptan-6-yl)pyrrolo[2,1-f][1,2,4] triazin-2-amine] | 11 | 212 |
| O[C@H]1C[C@@H](Nc2ncc3c(-c4ccc5nccnc5c4)ccn3n2)C1 [Compound 1724, cis-3-((5-(Quinoxalin-6-yl)pyrrolo [2,1-f] [1,2,4]triazin-2-yl)amino) cyclobutan-1-ol] | 11 | 305 |
| COCC(=O)N[C@]1(C)C[C@@H](Nc2ncc3c(-c4ccc5nccnc5c4)ccn3n2)C1 [Compound 1985, 2-Methoxy-N-(trans-1-methyl-3-((5-(quinoxalin-6-yl)pyrrolo[2,1-f][1,2,4]triazin-2-yl)amino)cyclobutyl)acetamide] | 3 | – |
